{"source": "paper PMC10439952", "about": "“JT002, a small molecule inhibitor of the NLRP3 inflammasome for the treatment of autoinflammatory disorders” (Scientific Reports, 2023)", "system": "OVA sensitized, OVA challenged and iTreg transferred CD8α-/- mice", "experiment": "Murine model of iTreg induced IL-17-dependent neutrophilic asthma", "format": "in vivo, mouse", "description": "In an allergen-dependent, inducible regulatory T cell (iTreg) model of IL-17-dependent neutrophilic asthma, ovalbumin (OVA) sensitized recipient CD8α^−/− mice are administered iTreg cells intratracheally (i.t.) on Day 26 after the first OVA challenge and subsequently challenged with OVA on Days 26–28[48] (Fig. 5A). This model elicits TH17-dependent IL-17 release that promotes airway neutrophilia and enhanced airway hyperresponsiveness (AHR) to inhaled methacholine. We investigated the effect of JT002 at two doses in OVA sensitized, OVA challenged and iTreg transferred CD8α^−/− mice. JT002 was administered to mice once daily (QD) by oral gavage (p.o.) on Days 23–29 at 2.5 mg/kg (n = 3/group) and at 25 mg/kg (n = 7/group) before evaluation of airway hyperresponsiveness (AHR) and airway inflammation on Day 30 (Fig. 5A). Additional control groups included vehicle treated disease animals (OVA/OVA + iTregs; n = 7/group), OVA sensitized, OVA challenged control animals (OVA/OVA; n = 6/group) and phosphate buffer saline (PBS) sensitized, OVA challenged animals (PBS/OVA; n = 4/group). […] Sensitization and challenge with OVA led to an increase in total serum IgE as well as OVA-specific serum IgE, IgG1 and IgG2b even in the absence of iTreg instillation (Fig. 5E, Supplementary Fig. 4C).\nCD4^+CD25^− T cells were enriched from spleens of naïve C57BL/6 mice to > 98% purity with MACS beads (Miltenyi Biotec, Bergisch-Gladbach, Germany). Cells were washed, counted, and resuspended to a final concentration of 4 × 10^6 cells per mL and cultured in X-Vivo 15 (Lonza, Wakersville, MD) supplemented with 5 ng/mL IL-2 and stimulated with bound anti-CD3 and 2 μg/mL soluble anti-CD28 with 5 ng/mL TGF-β for five to seven days to generate iTregs. Female CD8α^−/− C57BL6/j mice were sensitized by intraperitoneal injection of 20 μg OVA (Sigma Aldrich, St. Louis, MO) emulsified in 2.25 mg alum hydroxide (Imject Alum, Pierce, Rockford, IL) in a total volume of 100 μL on Days 0 and 14. Sensitized and challenged mice, denoted OVA/OVA, and non-sensitized but challenged littermates (PBS/OVA) received aerosol challenges for 20 min each day on three consecutive days (Days 26–28) with 1% OVA in PBS using an ultrasonic nebulizer (Omron, Vernon Hills, IL). On Day 26, differentiated iTregs cells generated in vitro were washed and adoptively transferred (5 × 10^5 in 50 μL of PBS) into OVA/OVA mice, denoted as OVA/OVA + iTregs. OVA/OVA + iTregs mice were dosed orally with JT002 at 2.5 or 25 mg/kg once daily on Days 23–29 or with vehicle (0.5% methyl cellulose, 0.25% Tween 80 in 50 mM NaH2PO4/Na2HPO4 at pH 8).\nDetermination of airway hyperresponsiveness (AHR) AHR was assessed on Day 30 (iTreg model) or 3 h after the O3 exposure (ozone model) as a change in airway resistance (cm H2O/mL/s) after challenge with aerosolized methacholine with using a whole body plethysmograph-based system (National Jewish Medical and Research Center, Denver, CO). Methacholine aerosol was administered by nebulization in increasing concentrations (12.5–100 mg/mL) and RL was continuously computed by fitting flow, volume, and pressure to an equation of motion (Labview, National Instruments, Dallas, TX). Bronchoalveolar Lavage Immediately after assessment of AHR, lungs were lavaged via the tracheal tube with 1 mL of Hanks’ balanced salt solution (Gibco, Grand Island, NY). Total cell numbers were counted. Differential cell counts for neutrophils and macrophages were performed in a blinded fashion by counting at least 200 cells on cytocentrifuged preparations (Model Cytospin 3, Shandon Ltd, Runcorn, UK) stained with Leukostat (Fisher Diagnostics, Fair Lawn, NJ). Cell-free BAL fluid was stored at − 80 °C until measurements of cytokine levels by ELISA (eBioscience, San Diego, CA) were performed. Blood Collection Immediately following AHR measurement, mice were euthanized by exsanguination and blood collected for serum. Samples were stored at − 80 °C for subsequent measurement of immunoglobulin levels by ELISA. […]", "key": {"[1]": {"settings": "low dose 2.5 mg/kg p.o. QD Days 23–29"}}, "data": [{"smiles": "CO[C@@H]1COc2c(S(=O)(=O)NC(=O)Nc3c4c(cc5c3CCC5)CCC4)cnn2C1", "note": "[JT002]", "values": [{"measurement": "BAL IL-6 concentration", "setting": "25 mg/kg p.o. QD Days 23–29", "value": "significantly decreased"}, {"measurement": "BAL IL-10 concentration", "setting": "25 mg/kg p.o. QD Days 23–29", "value": "strong trend for increased"}, {"measurement": "BAL IL-17 concentration", "setting": "25 mg/kg p.o. QD Days 23–29", "value": "significantly decreased"}, {"measurement": "BAL INFγ concentration", "setting": "25 mg/kg p.o. QD Days 23–29", "value": "increased"}, {"measurement": "airway eosinophilia", "setting": "25 mg/kg p.o. QD Days 23–29", "value": "no effect"}, {"measurement": "airway hyperresponsiveness (AHR)", "setting": "25 mg/kg p.o. QD Days 23–29", "value": "significantly decreased"}, {"measurement": "airway neutrophilia", "setting": "25 mg/kg p.o. QD Days 23–29", "value": "significantly decreased"}, {"measurement": "submucosal inflammatory cell infiltration", "setting": "25 mg/kg p.o. QD Days 23–29", "value": "visibly decreased"}, {"measurement": "serum OVA-specific IgE", "setting": "high dose (25 mg/kg)", "value": "significant decrease"}, {"measurement": "serum OVA-specific IgG isoforms", "setting": "high dose (25 mg/kg)", "value": "no significant effect"}, {"measurement": "serum total IgE", "setting": "high dose (25 mg/kg)", "value": "significant decrease"}, {"measurement": "airway hyperresponsiveness (AHR)", "setting": "[1]", "value": "no significant changes"}, {"measurement": "airway inflammation", "setting": "[1]", "value": "no significant changes"}]}]}
